System: not given
Conditions: not given

SMILES | melting point
CSc1c(C(=O)NN=Cc2nccs2)[nH]c2ccccc12 [Example 109, 3-(methylthio)-N′-(1,3-thiazol-2-ylmethylidene)-1H-indole-2-carbohydrazide] | 216 to 222 °C
CS(=O)(=O)c1c(C(=O)NN=Cc2nccs2)[nH]c2ccccc12 [Example 111, 3-(methylsulfonyl)-N′-(1,3-thiazol-2-ylmethylidene)-1H-indole-2-carbohydrazide] | > 280 °C
CS(=O)(=O)c1c(C(=O)NN=Cc2cccc3ccccc23)[nH]c2ccccc12 [Example 135, 3-(methylsulfonyl)-N′-(1-naphthylmethylidene)-1H-indole-2-carbohydrazide] | > 250 °C
CN(C)C(=O)c1c(C(=O)NN=Cc2ccc3ccccc3c2)[nH]c2ccccc12 [Example 136, N,N-dimethyl-2-((2-(2-naphthylmethylene)hydrazino)carbonyl)-1H-indole-3-carboxamide] | 256 to 260 °C
CN(N=Cc1ccco1)C(=O)c1[nH]c2ccccc2c1-c1ccccc1 [Example 149, N′-(2-furylmethylidene)-N-methyl-3-phenyl-1H-indole-2-carbohydrazide] | 196 to 199 °C
CN(N=Cc1ccc(C#N)cc1)C(=O)c1[nH]c2ccccc2c1-c1ccccc1 [Example 150, N′-((4-cyanophenyl)methylidene)-N-methyl-3-phenyl-1H-indole-2-carbohydrazide] | 194 to 196 °C
CN(N=Cc1cnc[nH]1)C(=O)c1[nH]c2ccccc2c1-c1ccccc1 [Example 152, N′-(1H-imidazol-5-ylmethylidene)-N-methyl-3-phenyl-1H-indole-2-carbohydrazide] | 248 to 250 °C

Other lines, results leading:

melting point | SMILES
221 to 222 °C | O=C(NN=Cc1ccc(Cl)cc1)c1[nH]c2ccccc2c1Cc1ccccc1 [Example 103, 3-benzyl-N′-((4-chlorophenyl)methylidene)-1H-indole-2-carbohydrazide]
227 to 229 °C | O=C(NN=Cc1ccc(Br)cc1)c1[nH]c2ccccc2c1Cc1ccccc1 [Example 104, 3-benzyl-N′-((4-bromophenyl)methylidene)-1H-indole-2-carbohydrazide]
255 to 257 °C | CCN(CC)C(=O)c1c(C(=O)NN=Cc2ccc(Cl)cc2)[nH]c2ccccc12 [Example 105, 2-((2-(4-chlorobenzylidene)hydrazino)carbonyl)-N,N-diethyl-1H-indole-3-carboxamide]
> 260 °C | O=C(NN=Cc1ccc(Cl)cc1)c1[nH]c2ccccc2c1C(=O)Nc1ccccc1 [Example 107, 2-((2-(4-chlorobenzylidene)hydrazino)carbonyl)-N-phenyl-1H-indole-3-carboxamide]
232 to 235 °C | CSc1c(C(=O)NN=Cc2ccc(Cl)cc2)[nH]c2ccccc12 [Example 108, N′-((4-chlorophenyl)methylidene)-3-(methylthio)-1H-indole-2-carbohydrazide]
> 280 °C | CS(=O)(=O)c1c(C(=O)NN=Cc2ccc(Cl)cc2)[nH]c2ccccc12 [Example 110, N′-((4-chlorophenyl)methylidene)-3-(methylsulfonyl)-1H-indole-2-carbohydrazide]
249 to 251 °C | COc1c(C(=O)NN=Cc2ccc(Cl)cc2)[nH]c2ccccc12 [Example 118, N′-((4-chlorophenyl)methylidene)-3-methoxy-1H-indole-2-carbohydrazide]
> 250 °C | O=C(NN=Cc1ccc(Cl)cc1)c1[nH]c2ccccc2c1Br [Example 119, 3-bromo-N′-((4-chlorophenyl)methylidene)-1H-indole-2-carbohydrazide]
210 to 212 °C | CN(N=Cc1ccc(Br)cc1)C(=O)c1[nH]c2ccccc2c1-c1ccccc1 [Example 151, N′-((4-bromophenyl)methylidene)-N-methyl-3-phenyl-1H-indole-2-carbohydrazide]

System: certain tumor models
Conditions: Adv. Cancer Res. 2000, 79, 1-38; cited from earlier work

SMILES | in vivo activity against certain tumor models
Cc1cc(C)c(/C=C2\C(=O)Nc3ccccc32)[nH]1 [SU5416] | good in vivo activity
